By Ki is commonly meant the equilibrium dissociation constant of an inhibitor or competing ligand from its target.

“And” between values parts separate entries of the source, which are not always exact repeats. Equal values may be shown once.

The values that follow come from patent US8927559B2, “Quinazolinone-type compounds as CRTH2 antagonists” (Merck Sharp & Dohme Corp., priority 2010, dated 2015).

The target of the experiment is T1, CRTH2 receptor (hCRTH2) (Homo sapiens, UniProt Q9Y5Y4).
T1 construct: expressed in transfected cells; host or cells: HEK cells (HEK-hCRTH2 cell line), membranes
T1 sequence (Q9Y5Y4 1-395): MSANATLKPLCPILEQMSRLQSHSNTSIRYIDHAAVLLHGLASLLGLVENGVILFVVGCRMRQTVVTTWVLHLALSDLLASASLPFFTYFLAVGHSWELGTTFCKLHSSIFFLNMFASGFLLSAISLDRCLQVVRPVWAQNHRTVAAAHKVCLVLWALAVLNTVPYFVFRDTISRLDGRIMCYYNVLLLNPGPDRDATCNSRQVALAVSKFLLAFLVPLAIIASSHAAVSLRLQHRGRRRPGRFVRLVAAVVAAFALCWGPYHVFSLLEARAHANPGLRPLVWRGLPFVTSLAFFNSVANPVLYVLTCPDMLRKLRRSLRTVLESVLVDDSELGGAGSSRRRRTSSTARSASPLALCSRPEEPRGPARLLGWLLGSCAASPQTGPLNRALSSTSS
The experiment in a line: Radioligand binding assay ([3H]PGD2 competition, membranes of HEK-hCRTH2 cell line). As to conditions: 3.0 nM [3H]PGD2, HEK-hCRTH2 membranes, 60 min, room temperature; read-out: Ki. The procedure:
Competing ligands were diluted in dimethylsulfoxide (Me2SO) that was kept constant at 1% (v/v) of the final incubation volume. The reaction was initiated by the addition of 8-20 μg of membrane protein prepared from a HEK-hCRTH2 cell line. Total and non-specific binding were determined in the absence and the presence of […] PGD2, respectively. […] The reaction was routinely conducted for 60 min at room temperature and terminated by rapid filtration through prewetted (0.3% polyethyleneimine) 96-well printed filtermate (Wallac) using a Tomtec harvester. After washing with cold buffer, the filter was dried for 2 minutes in microwave, and Meltilex Scintillator sheet (Wallac) was melted on for 2 min.
Take `C[C@]1([C@@H](O)c2ccccc2)CC(c2ccc3c(=O)n(-c4ccc(F)cc4)c(CCCCC(=O)O)nc3c2)=NO1` [Example 26D]: the Ki was in the range of 10 to 50 nM. Then `C[C@]1(Cc2ccccc2)CC(c2ccc3c(=O)n(-c4ccc(F)cc4)c(CCCCC(=O)O)nc3c2)=NO1` [Example 26E], with no more than 10 nM; and `C[C@@]1([C@H](O)c2ccccc2)CC(c2ccc3c(=O)n(-c4ccc(F)cc4)c(CCCCC(=O)O)nc3c2)=NO1` [Example 26F], with no more than 10 nM; and `C[C@]1([C@H](O)c2ccccc2)CC(c2ccc3c(=O)n(-c4ccc(F)cc4)c(CCCCC(=O)O)nc3c2)=NO1` [Example 26G], with 10 to 50 nM. Then `C[C@@]1([C@H](O)c2ccccc2)CC(c2ccc3c(=O)n(-c4ccccc4)c(CCCCC(=O)O)nc3c2)=NO1` [Example 26J], with no more than 10 nM; and `C[C@]1([C@H](O)c2ccccc2)CC(c2ccc3c(=O)n(-c4ccccc4)c(CCCCC(=O)O)nc3c2)=NO1` [Example 26K], with 10 to 50 nM; and `C[C@]1(Cc2ccccc2)CC(c2ccc3c(=O)n(-c4ccccc4)c(CCCCC(=O)O)nc3c2)=NO1` [Example 26L], with 10 to 50 nM. In the case of `C[C@@]1(Cc2ccccc2)CC(c2ccc3c(=O)n(-c4ccccc4)c(CCCCC(=O)O)nc3c2)=NO1` [Example 26M] it was no more than 10 nM; in that of `C[C@@]1([C@@H](O)c2ccccc2)CC(c2ccc3c(=O)n(-c4ccccc4)c(CCCCC(=O)O)nc3c2)=NO1` [Example 26i], 10 to 50 nM. For `O=C(O)CCCCc1nc2cc(C3=NOC(c4nc5ccccc5o4)C3)ccc2c(=O)n1-c1ccc(F)cc1` (stereo not drawn) [Example 28, 5-(7-(5-(benzo[d]oxazol-2-yl)-4,5-dihydroisoxazol-3-yl)-3-(4-fluorophenyl)-4-oxo-3,4-dihydroquinazolin-2-yl)pentanoic acid], the Ki is no more than 10 nM.

Turning to `O=C(O)CCCCc1nc2cc(-c3cc(-c4nc5ccccc5o4)on3)ccc2c(=O)n1-c1ccc(F)cc1` [Example 29], the Ki was no more than 10 nM. Then `O=C(O)CCCCc1nc2cc(-c3cc(-c4ccccc4)no3)ccc2c(=O)n1-c1ccc(F)cc1` [Example 32], with 10 to 50 nM and 22.1 nM. With `O=C(O)CCCCc1nc2cc(-c3cc(-c4ccc5ccccc5n4)on3)ccc2c(=O)n1-c1ccc(F)cc1` [Example 33], the Ki was no more than 10 nM. In the case of `O=C(O)CCCCc1nc2cc(-c3noc(Cc4ccc(F)cc4)n3)ccc2c(=O)n1-c1ccc(F)cc1` [Example 36, 5-(7-(5-(4-fluorobenzyl)-1,2,4-oxadiazol-3-yl)-3-(4-fluorophenyl)-4-oxo-3,4-dihydroquinazolin-2-yl)pentanoic acid] it was no more than 10 nM; in that of `O=C(O)CCCCc1nc2cc(C3=NOC[C@@H](c4ccc(F)cc4)N3)ccc2c(=O)n1-c1ccc(F)cc1` [Example 37, (R)-5-(3-(4-fluorophenyl)-7-(5-(4-fluorophenyl)-5,6-dihydro-4H-1,2,4-oxadiazin-3-yl)-4-oxo-3,4-dihydroquinazolin-2-yl)pentanoic acid], no more than 10 nM; in that of `O=C(O)CCCCc1nc2cc(C3=NOC[C@H](c4ccc(F)cc4)N3)ccc2c(=O)n1-c1ccc(F)cc1` [Example 37E], no more than 10 nM. For `O=C(O)CCCCc1nc2cc(-c3cc(CSc4nc5cc(OC(F)F)ccc5[nH]4)on3)ccc2c(=O)n1-c1ccc(F)cc1` [Example 39, 5-(7-(5-((5-(difluoromethoxy)-1H-benzo[d]imidazol-2-ylthio)methyl)isoxazol-3-yl)-3-(4-fluorophenyl)-4-oxo-3,4-dihydroquinazolin-2-yl)pentanoic acid], the inhibition constant (Ki) is 10 to 50 nM. In the case of `O=C(O)CCCCc1nc2cc(-c3cc(CS(=O)(=O)c4nc5cc(OC(F)F)ccc5[nH]4)on3)ccc2c(=O)n1-c1ccc(F)cc1` [Example 39E, 5-(7-(5-((5-(difluoromethoxy)-1H-benzo[d]imidazol-2-ylsulfonyl)methyl)isoxazol-3-yl)-3-(4-fluorophenyl)-4-oxo-3,4-dihydroquinazolin-2-yl)pentanoic acid] it was 10 to 50 nM; in that of `O=C(O)CCCCc1nc2cc(-c3cc(CSc4ccc(F)cc4)on3)ccc2c(=O)n1-c1ccc(F)cc1` [Example 39F], no more than 10 nM. In the case of `O=C(O)CCCCc1nc2cc(-c3cc(CSc4ccccn4)on3)ccc2c(=O)n1-c1ccc(F)cc1` [Example 39G] it was 10 to 50 nM; in that of `COc1ccc2[nH]c(SCc3cc(-c4ccc5c(=O)n(-c6ccc(F)cc6)c(CCCCC(=O)O)nc5c4)no3)nc2c1` [Example 39H], 10 to 50 nM.

Turning to `O=C(O)CCCCc1nc2cc(-c3cc(CS(=O)(=O)c4ccccn4)on3)ccc2c(=O)n1-c1ccc(F)cc1` [Example 39I], the Ki lay within 10 to 50 nM. In the case of `COc1ccc2[nH]c(S(=O)(=O)Cc3cc(-c4ccc5c(=O)n(-c6ccc(F)cc6)c(CCCCC(=O)O)nc5c4)no3)nc2c1` [Example 39J] it was no more than 10 nM; in that of `O=C(O)CCCCc1nc2cc(-c3cc(CSc4nc5ccccc5[nH]4)on3)ccc2c(=O)n1-c1ccc(F)cc1` [Example 39K], no more than 10 nM. Take `O=C(O)CCCCc1nc2cc(-c3cc(CS(=O)(=O)c4nc5ccccc5[nH]4)on3)ccc2c(=O)n1-c1ccc(F)cc1` [Example 39L]: the Ki is no more than 10 nM. Then `O=C(O)CCCCc1nc2cc(-c3cc(C[S+]([O-])c4nc5ccccc5[nH]4)on3)ccc2c(=O)n1-c1ccc(F)cc1` (stereo not drawn) [Example 40, 5-(7-(5-((1H-benzo[d]imidazol-2-ylsulfinyl)methyl)isoxazol-3-yl)-3-(4-fluorophenyl)-4-oxo-3,4-dihydroquinazolin-2-yl)pentanoic acid], with 10 to 50 nM; and `CCC1(c2ccccc2)CC(c2ccc3c(=O)n(-c4ccc(F)cc4)c(CCCCC(=O)O)nc3c2)=NO1` (stereo not drawn) [Example 41], with no more than 10 nM.

In the case of `CC[C@H](c1ccc(F)cc1)c1cc(-c2ccc3c(=O)n(-c4ccc(F)cc4)c(CCCCC(=O)O)nc3c2)no1` [Example 43, (R)-5-(3-(4-fluorophenyl)-7-(5-(1-(4-fluorophenyl)propyl)isoxazol-3-yl)-4-oxo-3,4-dihydroquinazolin-2-yl)pentanoic acid], the Ki is no more than 10 nM. As for `CC[C@@H](c1ccc(F)cc1)c1cc(-c2ccc3c(=O)n(-c4ccc(F)cc4)c(CCCCC(=O)O)nc3c2)no1` [Example 43D], the Ki is no more than 10 nM.

For the compound `C[C@@H](OCc1ccc(F)cc1)c1cc(-c2ccc3c(=O)n(-c4ccc(F)cc4)c(CCCCC(=O)O)nc3c2)no1` [Example 44], the Ki is 10 to 50 nM and 32.6 nM.

As for `O=C(O)CCCCc1nc2cc(-c3cc(Cc4ccccc4)on3)ccc2c(=O)n1-c1ccc(F)cc1` [Example 100], the Ki is no more than 10 nM. Take `O=C(O)CCCCc1nc2cc(-c3cc([C@@H](O)c4ccccc4)on3)ccc2c(=O)n1-c1ccc(F)cc1` [Example 101]: the Ki was no more than 10 nM. In the case of `O=C(O)CCCCc1nc2cc(-c3cc([C@H](O)c4ccccc4)on3)ccc2c(=O)n1-c1ccc(F)cc1` [Example 102], the Ki is no more than 10 nM. Then `Cc1ccccc1-c1cc(-c2ccc3c(=O)n(-c4ccc(F)cc4)c(CCCCC(=O)O)nc3c2)no1` [Example 103], with no more than 10 nM.

In the case of `O=C(O)CCCCc1nc2cc(-c3noc(-c4ccc(C(F)(F)F)cc4)n3)ccc2c(=O)n1-c1ccc(F)cc1` [Example 104], the Ki lay in the range of 10 to 50 nM. Then `O=C(O)CCCCc1nc2cc(-c3cn(-c4ccc(F)cc4)nn3)ccc2c(=O)n1-c1ccc(F)cc1` [Example 105], with no more than 10 nM.
